Results as given in patent US8067231B2 (priority 2005, dated 2011).

Tested on: Neuro-2A
Type: cell-based, mouse

CC1=C(/C=C/C(C)=C/C=C/C(C)=C/C(=O)O)C(C)(C)CCC1 [all trans retinoic acid, All Trans-Retinoic acid]
BoNT/A SNAP25197-cleavage product (uptake of BoNT/A) after differentiation reagent treatment: increase
